Results published in patent publication US20070161108A1, “Bob-1 specific T cells and methods to use” (priority 2004, published 2007).

Key:
[1] = system: T-cell lines from an HIV-2 infected patient; assay: gamma-interferon-ELISPOT-assay, T-cell lines from an HIV-2 infected patient (FIG. 12); type: cell-based, human; conditions: PBMC stimulated by pool of 5 overlapping peptides aa151-210
Procedure: FIG. 12 Recognition of Bob-1 specific peptide aa171-190 by T-cell lines from an HIV-2 infected patient. PBMC from the patient had been stimulated by a pool of 5 overlapping peptides spanning aa151-210 of the Bob-1 sequence. Outgrowing cells were tested in a gamma-interferon-ELISPOT-assay of recognition of the peptide pool aa151-210 and of the individual peptides.

[2] = system: PBMC of a healthy person; assay: gamma-IFN-ELISPOT, in vitro stimulation of PBMC of a healthy person with peptide-loaded dendritic cells (FIG. 14); type: cell-based, human; conditions: pool 1 or pool 4 presented by autologous dendritic cells
From the text: Given are the number of peptide-specific T-cells after stimulation of the pool 1-specific or the pool 4-specific cell lines with the respective pools and the indicated peptides. […] The T-cell lines had been generated by stimulation of peripheral blood mononuclear cells (PBMC) with five different pools containing each five 20 amino acid (aa) long peptides with a 10 amino acid long overlap, corresponding to aa 1 to aa 256 of the Bob-1 protein. The peptide pools were presented by autologous dendritic cells that had been generated by a standard protocoll (Berger T G, Feuerstein B, Strasser E, Hirsch U, Schreiner D, Schuler G, Schuler-Thurner B. Large-scale generation of mature monocyte-derived dendritic cells for clinical application in cell factories. Journal of immunological methods 2002, 268: 131-140). […] Therefore, it represents a model for an in vivo induction of a Bob-1 specific T-cell response.
For this, PBMC of a healthy person were stimulated—as described above—with autologous dendritic cells loaded with a selection of Bob-1 derived peptides. […]

Sequence: QAPLTYFPWPQPLSTLPTST [peptide aa171-190]
- Recognition in gamma-interferon-ELISPOT [1]: specific recognition
- Recognition by T-cell lines, or induction of Bob-1-specific T-cells, gamma-IFN-ELISPOT [2]: specific recognition
